# In EP0584797A2, “Novel cephalosporin compounds and processes for the preparation thereof” (LUCKY LTD., priority 1992, dated 1994):
# Tests used:
# Assay in all cases: minimal inhibitory concentration, two-fold agar dilution
# Assay type in all cases: cell-based
# [1] = system: Providencia rettgeri ATCC 9250; settings: ATCC9250, Muller-Hinton agar, 37°C, 20 hours, read-out: MIC values against the standard strains
# Procedure: (§1) These MIC values were taken by employing a two-fold dilution method: that is, two-fold serial dilutions of each of the test compounds were made and dispersed in a Muller-Hinton agar medium; 2µl of the standard test strain which had the 10⁷ CFU(Colony Forming Unit) per ml was inoculated on the medium; and these were incubated at 37°C for 20 hours.
# [2] = system: Staphylococcus aureus ATCC 6538p; settings: ATCC6538P, Muller-Hinton agar, 37°C, 20 hours, read-out: MIC values against the standard strains
# Procedure: as §1
# [3] = system: Bacillus megaterium ATCC 9885; settings: Priestia megaterium, ATCC9885; Muller-Hinton agar; 37°C; 20 hours; read-out: MIC values against the standard strains
# Procedure: as §1
# [4] = system: Pseudomonas aeruginosa ATCC 27853; settings: ATCC27853, Muller-Hinton agar, 37°C, 20 hours, read-out: MIC values against the standard strains
# Procedure: as §1
# [5] = system: Proteus mirabilis ATCC 25933; settings: ATCC25933, Muller-Hinton agar, 37°C, 20 hours, read-out: MIC values against the standard strains
# Procedure: as §1
# [6] = system: Proteus vulgaris ATCC 6059; settings: ATCC6059, Muller-Hinton agar, 37°C, 20 hours, read-out: MIC values against the standard strains
# Procedure: as §1
# [7] = system: Citrobacter freundii ATCC 8090; settings: ATCC8090, Muller-Hinton agar, 37°C, 20 hours, read-out: MIC values against the standard strains
# Procedure: as §1
# [8] = system: Pseudomonas aeruginosa ATCC 25619; settings: ATCC25619, Muller-Hinton agar, 37°C, 20 hours, read-out: MIC values against the standard strains
# Procedure: as §1
# [9] = system: Shigella sonnei ATCC 11060; settings: ATCC11060, Muller-Hinton agar, 37°C, 20 hours, read-out: MIC values against the standard strains
# Procedure: as §1
# [10] = system: Shigella flexneri ATCC 11836; settings: ATCC11836, Muller-Hinton agar, 37°C, 20 hours, read-out: MIC values against the standard strains
# Procedure: as §1
# [11] = system: Bacillus cereus ATCC 11778; settings: ATCC11778, Muller-Hinton agar, 37°C, 20 hours, read-out: MIC values against the standard strains
# Procedure: as §1
# [12] = system: Enterobacter aerogenes ATCC 29751; settings: Klebsiella aerogenes, ATCC29751; Muller-Hinton agar; 37°C; 20 hours; read-out: MIC values against the standard strains
# Procedure: as §1
# [13] = system: Micrococcus luteus ATCC 9341; settings: ATCC9341, Muller-Hinton agar, 37°C, 20 hours, read-out: MIC values against the standard strains
# Procedure: as §1
# [14] = system: Serratia marcescens ATCC 27117; settings: ATCC27117, Muller-Hinton agar, 37°C, 20 hours, read-out: MIC values against the standard strains
# Procedure: as §1
# [15] = system: Pseudomonas aeruginosa ATCC 10145; settings: ATCC10145, Muller-Hinton agar, 37°C, 20 hours, read-out: MIC values against the standard strains
# Procedure: as §1
# [16] = system: Streptococcus faecalis ATCC 29212; settings: Enterococcus faecalis, ATCC29212; Muller-Hinton agar; 37°C; 20 hours; read-out: MIC values against the standard strains
# Procedure: as §1
# [17] = system: Morganella morganii ATCC 8076h; settings: ATCC8076H, Muller-Hinton agar, 37°C, 20 hours, read-out: MIC values against the standard strains
# Procedure: as §1
# [18] = system: Staphylococcus epidermidis ATCC 12228; settings: ATCC12228, Muller-Hinton agar, 37°C, 20 hours, read-out: MIC values against the standard strains
# Procedure: as §1
# [19] = system: Acinetobacter calcoaceticus ATCC 15473; settings: ATCC15473, Muller-Hinton agar, 37°C, 20 hours, read-out: MIC values against the standard strains
# Procedure: as §1
# [20] = system: Enterobacter cloacae ATCC 27508; settings: ATCC27508, Muller-Hinton agar, 37°C, 20 hours, read-out: MIC values against the standard strains
# Procedure: as §1
# [21] = system: Staphylococcus aureus ATCC 10537; settings: ATCC10537, Muller-Hinton agar, 37°C, 20 hours, read-out: MIC values against the standard strains
# Procedure: as §1
# [22] = system: Klebsiella pneumoniae ATCC 10031; settings: ATCC10031, Muller-Hinton agar, 37°C, 20 hours, read-out: MIC values against the standard strains
# Procedure: as §1
# [23] = system: Escherichia coli ATCC 25922; settings: ATCC25922, Muller-Hinton agar, 37°C, 20 hours, read-out: MIC values against the standard strains
# Procedure: as §1
# [24] = system: Salmonella typhimurium ATCC 14028; settings: Salmonella enterica; Muller-Hinton agar; 37°C; 20 hours; read-out: MIC values against the standard strains
# Procedure: as §1
# [25] = system: Escherichia coli ATCC 10536; settings: ATCC10536, Muller-Hinton agar, 37°C, 20 hours, read-out: MIC values against the standard strains
# Procedure: as §1
Compound,MIC [1],MIC [2],MIC [3],MIC [4],MIC [5],MIC [6],MIC [7],MIC [8],MIC [9],MIC [10],MIC [11],MIC [12],MIC [13],MIC [14],MIC [15],MIC [16],MIC [17],MIC [18],MIC [19],MIC [20],other results
"CCO/N=C(\C(=O)N[C@@H]1C(=O)N2C(C(=O)[O-])=C(CSc3nc(N)c4ccccc4[n+]3C)CS[C@H]12)c1csc(N)n1 [Example 29, 7-[(Z)-2-(2-aminothiazol-4-yl)-2-(ethoxyimino)acetamido]-3-(4-amino-1-methylbenzo-[5,6,e]pyrimidinium-2-yl)thiomethyl-3-cephem-4-carboxylate]",≤ 0.008 mg/L,0.13 mg/L,0.063 mg/L,16 mg/L,0.5 mg/L,0.5 mg/L,0.13 mg/L,4 mg/L,0.25 mg/L,0.063 mg/L,16 mg/L,0.25 mg/L,0.016 mg/L,0.5 mg/L,16 mg/L,16 mg/L,≤ 0.008 mg/L,0.031 mg/L,16 mg/L,≤ 0.008 mg/L,MIC [21]: 0.13 mg/L; MIC [22]: ≤ 0.008 mg/L; MIC [23]: 0.13 mg/L; MIC [24]: 0.5 mg/L; MIC [25]: 0.13 mg/L
"CCO/N=C(\C(=O)N[C@@H]1C(=O)N2C(C(=O)[O-])=C(CSc3nc(N)c4cccnc4[n+]3C)CS[C@H]12)c1csc(N)n1 [Example 31, 7-[(Z)-2-(2-aminothiazol-4-yl)-2-(ethoxyimino)acetamido]-3-(6-amino-3-methylpyrido[5,6,e]pyrimidinium-4-yl)thiomethyl-3-cephem-4-carboxylate]",0.016 mg/L,0.13 mg/L,0.13 mg/L,16 mg/L,1 mg/L,1 mg/L,0.25 mg/L,4 mg/L,0.25 mg/L,0.13 mg/L,32 mg/L,0.5 mg/L,0.031 mg/L,1 mg/L,32 mg/L,16 mg/L,0.016 mg/L,0.063 mg/L,16 mg/L,0.016 mg/L,MIC [21]: 0.13 mg/L; MIC [22]: ≤ 0.008 mg/L; MIC [23]: 0.13 mg/L; MIC [24]: 1 mg/L; MIC [25]: 0.25 mg/L
"C[n+]1c(SCC2=C(C(=O)[O-])N3C(=O)[C@@H](NC(=O)/C(=N\OC(C)(C)C(=O)O)c4csc(N)n4)[C@H]3SC2)nc(N)c2ccoc21 [Example 32, 7-[(Z)-2-(2-aminothiazol-4-yl)-2-(carboxyprop-2-oxyimino)acetamido]-3-(4-amino-1-methylfuro[5,6,e]pyrimidinium-2-yl-)thiomethyl-3-cephem-4-carboxylate]",≤ 0.008 mg/L,4 mg/L,0.13 mg/L,2 mg/L,0.13 mg/L,0.13 mg/L,0.13 mg/L,1 mg/L,0.13 mg/L,0.031 mg/L,128 mg/L,2 mg/L,0.25 mg/L,0.25 mg/L,4 mg/L,> 128 mg/L,≤ 0.008 mg/L,2 mg/L,8 mg/L,0.016 mg/L,MIC [21]: 2 mg/L; MIC [22]: 0.016 mg/L; MIC [23]: 0.063 mg/L; MIC [24]: 0.25 mg/L; MIC [25]: 0.063 mg/L
"CCO/N=C(\C(=O)N[C@@H]1C(=O)N2C(C(=O)[O-])=C(CSc3nc(N)c4ccoc4[n+]3C)CS[C@H]12)c1csc(N)n1 [Example 33, 7-[(Z)-2-(2-aminothiazol-4-yl)-2-(ethoxyimino)acetamido]-3-(4-amino-1-methylfuro-[5,6,e]pyrimidinium-2-yl)thiomethyl-3-cephem-4-carboxylate]",≤ 0.008 mg/L,0.25 mg/L,0.063 mg/L,8 mg/L,0.5 mg/L,0.25 mg/L,0.063 mg/L,0.5 mg/L,0.13 mg/L,0.063 mg/L,32 mg/L,0.5 mg/L,0.031 mg/L,0.5 mg/L,16 mg/L,8 mg/L,≤ 0.008 mg/L,0.13 mg/L,8 mg/L,≤ 0.008 mg/L,MIC [21]: 0.25 mg/L; MIC [22]: ≤ 0.008 mg/L; MIC [23]: 0.063 mg/L; MIC [24]: 0.5 mg/L; MIC [25]: 0.063 mg/L
